According to US20240270786A1, “STEROID COMPOUNDS” (Epirium Bio Inc., priority 2022, published 2024):
Several values for one entry are separate records, joined by “and”; a condition that tells them apart may be missing. Identical values can stand only once.

Legend:
[1] = system: PGC-1α expression in C2C12 cells; experiment: In vitro PGC-1α expression in C2C12 cells (cell ELISA); format: cell-based; conditions: 5000 cells/well, OD @ 650 nm, DMSO control = 100
Protocol: Culture conditions: DMEM containing 25 mM glucose with 10% FBS supplementation; grown at 37° C. and 5% CO2.
Drugs: (+)-Epicatechin, AICAR (direct activator of AMPK).
Assay Conditions: C2C12 cells were cultured in DMEM supplemented in 10% FBS upto 80% confluence. The cells were further trypsinized and seeded into a 96 well plate at a density of 5000 cells/well (well volume—100 μL) (Day 0). Following attachment, the cells were allowed to reach 80-90% confluence in the plate (typically 48 hours post seeding) and further differentiated using DMEM+2% Horse Serum (200 μL/well). The media was changed every day or at least every alternate day for 5 days to allow myoblasts to differentiate into myotubes. On day 7 (post seeding), the cells were treated with standards and test compounds for PGC-1 α assay.
PGC-1α assay: For the detection of PGC-1a, the cells were incubated with 0.5 μg/ml primary antibody (Merck, WH0010891M3) in PBS-T containing 5% BSA at 4° C. overnight. The cells were then washed three times with PBS-T for 5 minutes and incubated with 1:1000 dilution secondary antibody (Anti-rabbit IgG, HRP-linked Antibody, Cell Signaling) in PBS-T with 1% BSA for 1 hour at RT. Cells were washed three times with PBS-T for 5 minutes The cells were incubated with 100 μl TMB substrate solution for 30 minutes and the reaction was stopped with 100 μl of 2N H2SO4. […] (For plate optical density calculations, a background correction was taken at 540 nm). The final PGC-1a activation % is average of activation of 6 replicates.

PGC-1α = experiment: In vivo PGC-1α expression in liver of LPS-treated mice (ELISA); design: species or system C57BL/6 mice; conditions: for PGC-1α levels: C57BL/6 mice; for PGC-1α level (%): Control = 100
Protocol: C57BL/6 mice were procured from Vivo Bio Tech Ltd. Male mice were used for the study within an age range of 7 to 8 weeks. Body weight for these mice ranged from 20 g to 25 g. Animals were housed in a group of 6 in individually ventilated cages with temperature of 22±3° C., a relative humidity of 50 to 60%. The bottom of the cages was layered with sterilized corn cob. Animals were provided with gamma irradiated feed and autoclaved drinking water ad-libitum. The IVCs were maintained at an environment controlled (Centrally Air-Conditioned) room at a temperature of 22±3° C., a relative humidity of 50 to 60%, light intensity of 250-300 lux and a 12 hour light-dark cycle and noise intensity of <85 db.
Method of Preparation: LPS was dosed at 3 mg/kg in a dose volume of 10 ml/kg. For this, 0.3 mg/ml of LPS solution (Micronized suspension) was prepared. Butter paper was placed on analytical balance, tarred and LPS was placed on butter paper and its weight was noted down. LPS was transferred to 15 ml falcon tube. Then required amount of normal saline was added to it to make it 0.3 mg/ml. The solution was vortexed properly for 5 minutes and placed on ice. LPS solution was vortexed every time before aspiration and injection.
LPS was dosed at 3 mg/kg. Each test compound was dosed at 10 mg/kg, 2 hour and 15 min post LPS administration.
0.5% CMC was used as a vehicle with a dose volume of 10 ml/kg. An IP route was used for LPS, and a PO route was used for each test compound. Animals were sacrified 24 hours post LPS dosing, and plasma were collected. PGC-1α level was measured in liver samples, and other tissues were stored for future analysis. PGC-1α level was checked using ELISA kit—CUSABIO Mouse PPARGC1A ELISA kit.
Protocol: One day before start of the experiment C57BL/6 Mice (Male, 6-7-week-old) were randomized on the basis of their body weight and were divided into groups. All the cages were assigned the respective group name. Animals inside each cage were marked on the base of the tails with permanent marker to distinguish each animal. Mice were fasted overnight. Next day morning animals were dosed with test item. Group 1 (Control) and Group 2 (LPS) Animals were dosed with vehicle (0.5% CMC). Test items were prepared in 0.5% CMC by trituration in mortar and pestle and addition of CMC drop by drop. 2 hour post test item/vehicle dosing animals were administered with LPS through IP route at 3 mg/kg of body weight. Group 1 (Control) animals were administered with saline. 0.25 hour post LPS administration, animals were again dosed with test item/vehicle. Post dosing, animals were returned to their respective cages and kept until termination of the study. No feed was offered to any group. Animals were provided with water. 24 hour post LPS administration, blood was collected from each animal under influence of mild isoflurane anesthesia through retro-orbital technique. Animals were sacrificed by CO2 asphyxiation technique. Post-termination, animals were dissected and vital organs, liver, brain, skeleton muscle were collected in Eppendorf tubes and flash frozen in liquid nitrogen. Serum was collected from whole blood by centrifuging it at 4° C. at 10,000 RPM and for 10 minutes. (Blood was left for 2 hour for coagulation before centrifugation) After completion of the experiment, all collected samples were stored at −80° C. until analysis.
Assay Methods/Protocol: The mortar was chilled with liquid nitrogen and then the small tissue pieces were grinded in the presence of liquid nitrogen to a fine powder. Immediately after grinding, transferred small amount of tissue powder to a 1.5 ml micro centrifuge tube containing 1.0 ml lysis buffer (RIPA buffer+Protease inhibitor). The samples were then incubated on ice for 2 hours. The samples were vortexed every 15 minutes. The samples were then centrifuged at 13000×g for 15 minutes at 2-8° C. After centrifugation the supernatant was removed carefully and pellet was discarded. […]

[2] = Pharmacokinetics: quantitative determination of compounds in mice plasma; format: in vivo, C57BL/6 Mice; conditions: 10 mg/kg PO single dose, vehicle 10% NMP
Protocol: C57BL/6 Mice, Age 7-9 weeks, body weight range 20-25 g were used. The mice were fasted overnight. Mice were dosed once a day for a single day at 10 mg/kg, 10 mg/kg. 6 time-points were used for whole blood. 10% NMP was used as a vehicle. 9 animals were used per treatment, with three groups of three animals each. Group 1 had time points at 15 and 60 minutes, Group 2 had time points at 30 and 120 minutes, and Group 3 had time points at 90 and 240 minutes. An Oral (PO) route was used. Plasma and brain samples were collected (brain sample collected at terminal time point). Plasma was collected through the centrifugation of whole blood at 10,000 rpm for 10 minutes at 4° C. Samples were stored at −80° C. until processing.
1.00 mg/mL in 100% MeOH PP vials (prepared at RT yellow light) at 2-8° C. were used as stock solution. 12.22-50000 ng/mL using 80% MeOH PP vials (prepared at RT yellow light) at 2-8° C. were used as working solution. 0.98-4000 ng/mL (prepared at RT yellow light) was used for the curve range. For Compounds 26, 40, and 50, 1.00 mg/mL of Compound 53 in 100% methanol Ria vials (Prepared at RT yellow light) was used as IS stock solution, and 80 ng/mL of Compound 53 in 80% methanol (Prepared at RT yellow light) was used as IS working solution. For Compound 36, 1.00 mg/mL of Compound 47 in 100% methanol Ria vials (Prepared at RT yellow light) was used as IS stock solution, and 80 ng/mL of Compound 47 in 80% methanol (Prepared at RT yellow light) was used as IS working solution. A linear, 1/×2 fit type was used. The injection volume was 10 μL for Compounds 26 and 36, and 5 μL for Compounds 40 and 50. Mobile Phase A was 0.1% Formic Acid in water at room temperature. Mobile Phase B was 100% methanol at room temperature. R0 wash solution was 80% methanol at room temperature. R3 wash solution was IPA/MeOH/ACN/water (1:1:1:1) at room temperature. The column was Agilent Eclipse 50*2.1 mm 1.8 μm and the instrument was Shimadzu LC-40 UPLC and AB Sciez 6500+ with LCMS002.
Using a pipette, 25 μL of each sample were aliquoted (calibration curve sample, QC samples and blank matrix) to labeled 1.5 ml eppendorf. Using a pipette, 5.0 μL of IS of conc. 80 ng (Cocktail IS) was aliquoted to each standards and samples except Blank. All tubes were mixed on a multi-tube vortex for approximately 30 seconds. 50 μL of 10 mM Sodium bi-carbonate were added. 1 ml of tert-butyl methyl ether (TBME) was added. All tubes were mixed on a multi-tube vortex for approximately 5 minutes then centrifuged for 10 min at 5,000 rpm for Compounds 26 and 36 and at 10,000 rpm for Compounds 40 and 50, 4° C. The sample was kept in methanol containing dry ice for few seconds to freeze the Aqueous layer (flash freeze method). The upper organic layer was poured from the frozen tubes into the labeled 12×75-mm rial vials and evaporated to dryness under nitrogen using Liquid Evaporator (30° C., ˜15 psi, ˜10 mins). 200 μl of reconstitution solution (0.1% Formic Acid: MeOH (20:80 v/v) were added into each tube. Samples were Vortexed for 30 seconds then transferred to amber glass injection vials for injection.
After test item administration, blood samples were collected from individual animals in previously labeled Heparinised blood collection tubes. Blood samples were collected from retro orbital plexus. The time points for collection of blood samples from all the animals are; 0.25, 0.5, 1, 2 and 4 hr. The collected samples were subjected to centrifugation @ 10,000 rpm for 10 minutes at 40° C. for separation of plasma. Thereafter, plasma samples were collected in previously labeled plasma tubes. These were stored at −80° C. until analysis.

[3] = LPS 3 mg/Kg IP, test compound 10 mg/kg PO BID, liver, 24 hours post LPS
[4] = LPS 0.25 + 0.5 + 1 mg/kg, test compound 10 mg/kg

Row | T½ [2] | AUC(0-inf) ([2]; C57BL/6, mouse) | AUC(0-t) ([2]; C57BL/6, mouse) | Cmax ([2]; C57BL/6, mouse) | Tmax ([2]; C57BL/6, mouse) | SMILES | % Activity (PGC-1α expression) ([1]; 1 mM) | PGC-1α levels (PGC-1α; [3]) | PGC-1α level (%) (PGC-1α; [3]) | PGC-1α level (PGC-1α; [4]) | PGC-1α level (%) (PGC-1α; [4]) | % Activity (PGC-1α expression) ([1]; 0.001 nM)
1 |  |  |  |  |  | NC(=O)c1ncn([C@@H]2O[C@H](CO)[C@@H](O)[C@H]2O)c1N [AICAR, 5-aminoimidazole-4-carboxamide-1-β-D-ribofuranoside] | 148% and 140% and 130% and 128% |  |  |  |  | 
2 | 25.4 min | 2.54 µg·h/mL | 2.45 µg·h/mL | 2.9 µg/mL | 15 min | CN(C)C(=O)[C@H]1CCC2C3CCC4=CC(=O)N(C)CC[C@]4(C)C3[C@@H](O)C[C@@]21C (stereo partly drawn) [Compound 50, (5aR,6S,7aS)-6-hydroxy-N,N,3,5a,7a-pentamethyl-2-oxo-2,3,4,5,5a,5b,6,7,7a,8,9,10,10a,10b,11,12-hexadecahydrocyclopenta[5,6]naphtho[1,2-d]azepine-8-carboxamide] |  | 38684 pg/mL and 24206 pg/mL | 110% and 80% | 2632 pg/mL | 40% | 
3 |  |  |  |  |  | Oc1cc(O)c2c(c1)O[C@H](c1ccc(O)c(O)c1)[C@H](O)C2 [Epicatechin, (+)-Epicatechin, reference compound] |  | 33330 pg/mL and 31729 pg/mL and 21967 pg/mL | 63% and 90% and 72% | 3247 pg/mL | 49% | 129% and 123% and 120% and 122% and 125%
